pKd: −log10 of the molar value. In brackets after ≈: the same amount, converted by molar mass. Activity calls are given as the source filed them. No cut-off for these calls is given here. Bridge positions count the residues as written; N and C are the ends. Square brackets hold non-standard residues; d marks the D form. Peptide text beside a SMILES is read from it. * marks the point of attachment. Heptanoyl(6-Me) = CC(C)CCCCC(=O)*; Dab = NCC[C@H](N)C(=O)O; Dap = NC[C@H](N)C(=O)O
Experiments:
Klebsiella pneumoniae [1] = test: Antibacterial activity against carbapenem-resistant Klebsiella pneumoniae clinical isolate ets78 assessed as inhibition of bacterial growth incubated for 24 hrs by CLSI protocol based broth microdilution method; type: functional
Acinetobacter baumannii = test: Antibacterial activity against carbapenem-resistant Acinetobacter baumannii NCTC13304 infected in ICR mouse model assessed as survival rate at 3 mg/kg, iv administered at 1 and 6 hrs post-infection and measured after 7 days relative to control; type: functional; conditions: NCTC13304, 168 h, time 7 day
Pseudomonas aeruginosa [2] = test: Potentiation of rifampicin induced antibacterial activity against Pseudomonas aeruginosa ATCC 27853 assessed as rifampicin MIC at 0.25 microg/ml incubated 24 hrs by cation adjusted Mueller-Hinton broth based method; type: functional; conditions: dose 0.25 µg/ml
Pseudomonas aeruginosa [3] = test: Potentiation of rifampicin induced antibacterial activity against Pseudomonas aeruginosa ATCC 27853 assessed as rifampicin MIC at 0.06 microg/ml incubated 24 hrs by cation adjusted Mueller-Hinton broth based method; type: functional; conditions: dose 0.06 µg/ml
Escherichia coli [4] = test: Antibacterial activity against carbapenem-resistant Escherichia coli clinical isolate 231109W005 assessed as inhibition of bacterial growth incubated for 24 hrs by CLSI protocol based broth microdilution method; type: functional
Pseudomonas aeruginosa [5] = test: Antibacterial activity against Pseudomonas aeruginosa ATCC 27853 infected in ICR mouse model infected in ICR mouse model assessed as survival rate at 10 mg/kg, iv administered at 1 and 6 hrs post-infection and measured after 7 days relative to control; type: functional; conditions: ATCC 27853, 168 h, time 7 day
Pseudomonas aeruginosa [6] = test: Antibacterial activity against carbapenem-resistant Pseudomonas aeruginosa clinical isolate ets6 assessed as inhibition of bacterial growth incubated for 24 hrs by CLSI protocol based broth microdilution method; type: functional
Pseudomonas aeruginosa [7] = test: Antibacterial activity against carbapenem-resistant Pseudomonas aeruginosa clinical isolate ets22 assessed as inhibition of bacterial growth incubated for 24 hrs by CLSI protocol based broth microdilution method; type: functional
[8] = Protein binding in human plasma assessed as unbound fraction at 0.2 uM incubated for 6 hrs by LC-MS/MS analysis; type: ADME, cell-free
Klebsiella pneumoniae [9] = test: Antibacterial activity against carbapenem-resistant Klebsiella pneumoniae clinical isolate KPN+19-15 assessed as inhibition of bacterial growth incubated for 16 to 20 hrs by CLSI protocol based broth microdilution method; type: functional; conditions: time 16-20 hrs
Pseudomonas aeruginosa [10] = test: Antibacterial activity against carbapenem-resistant Pseudomonas aeruginosa clinical isolate ets38 assessed as inhibition of bacterial growth incubated for 24 hrs by CLSI protocol based broth microdilution method; type: functional
[11] = AUC (0 to infinity) in male Sprague-Dawley rat at 3 mg/kg, iv measured after 24 hrs by LC-MS/MS analysis; type: ADME, organism-based; conditions: in vivo
Klebsiella pneumoniae [12] = test: Antibacterial activity against carbapenem-resistant Klebsiella pneumoniae clinical isolate KPN+19-15 infected in ICR mouse model administered intravenously with compound at 1 and 6 hrs post-infection and measured after 7 days; type: functional; conditions: 168 h, route iv, time 7 day
Pseudomonas aeruginosa [13] = test: Antibacterial activity against Pseudomonas aeruginosa ATCC 27853 infected in ICR mouse model administered intravenously with compound at 1 and 6 hrs post-infection and measured after 7 days; type: functional; conditions: ATCC 27853, 168 h, route iv, time 7 day
Pseudomonas aeruginosa [14] = test: Antibacterial activity against Pseudomonas aeruginosa ATCC 27853 assessed as inhibition of bacterial growth incubated for 16 to 20 hrs by CLSI protocol based broth microdilution method; type: functional; conditions: time 16-20 hrs
Pseudomonas aeruginosa [15] = test: Antibacterial activity against Pseudomonas aeruginosa ATCC 27853 assessed as bacterial concentration at 4 to 8 times of MIC measured after 1 hrs by time-kill kinetics assay; type: functional, organism-based
[16] = Half-life in male Sprague-Dawley rat at 3 mg/kg, iv measured after 24 hrs by LC-MS/MS analysis; type: ADME, organism-based; conditions: in vivo
Pseudomonas aeruginosa [17] = test: Antibacterial activity against Pseudomonas aeruginosa ATCC 27853 assessed as decrease in bacterial concentration at 0.5 to 2 times of MIC measured after 2 hrs by time-kill kinetics assay; type: functional, organism-based
Klebsiella pneumoniae [18] = test: Antibacterial activity against carbapenem-resistant Klebsiella pneumoniae clinical isolate ets26 assessed as inhibition of bacterial growth incubated for 24 hrs by CLSI protocol based broth microdilution method; type: functional
Klebsiella pneumoniae [19] = test: Antibacterial activity against carbapenem-resistant Klebsiella pneumoniae clinical isolate ets45 assessed as inhibition of bacterial growth incubated for 24 hrs by CLSI protocol based broth microdilution method; type: functional
Lipopolysaccharide (LPS) [20] = test: Binding affinity to Escherichia coli LPS assessed as dissociation constant by SPR analysis
Escherichia coli [21] = test: Antibacterial activity against Escherichia coli ATCC BAA-2523 infected in ICR mouse model administered intravenously with compound at 1 and 6 hrs post-infection and measured after 7 days; type: functional; conditions: ATCC BAA-2523, 168 h, route iv, time 7 day
Pseudomonas aeruginosa [22] = test: Antibacterial activity against carbapenem-resistant Pseudomonas aeruginosa clinical isolate ets55 assessed as inhibition of bacterial growth incubated for 24 hrs by CLSI protocol based broth microdilution method; type: functional
Lipopolysaccharide (LPS) [23] = test: Binding affinity to Pseudomonas aeruginosa LPS assessed as dissociation constant by SPR analysis
Pseudomonas aeruginosa [24] = test: Antibacterial activity against carbapenem-resistant Pseudomonas aeruginosa clinical isolate ets33 assessed as inhibition of bacterial growth incubated for 24 hrs by CLSI protocol based broth microdilution method; type: functional
[25] = MRT in male Sprague-Dawley rat at 3 mg/kg, iv measured after 24 hrs by LC-MS/MS analysis; type: ADME, organism-based; conditions: in vivo
Pseudomonas aeruginosa [26] = test: Potentiation of rifampicin induced antibacterial activity against Pseudomonas aeruginosa ATCC 27853 assessed as rifampicin MIC at 0.03 microg/ml incubated 24 hrs by cation adjusted Mueller-Hinton broth based method; type: functional; conditions: dose 0.03 µg/ml
Pseudomonas aeruginosa [27] = test: Antibacterial activity against carbapenem-resistant Pseudomonas aeruginosa clinical isolate ets83 assessed as inhibition of bacterial growth incubated for 24 hrs by CLSI protocol based broth microdilution method; type: functional
[28] = Clearance in male Sprague-Dawley rat at 3 mg/kg, iv measured after 24 hrs by LC-MS/MS analysis; type: ADME, organism-based; conditions: in vivo
Pseudomonas aeruginosa [29] = test: Antibacterial activity against carbapenem-resistant Pseudomonas aeruginosa clinical isolate ets84 assessed as inhibition of bacterial growth incubated for 24 hrs by CLSI protocol based broth microdilution method; type: functional
Pseudomonas aeruginosa [30] = test: Potentiation of rifampicin induced antibacterial activity against Pseudomonas aeruginosa ATCC 27853 assessed as rifampicin MIC at 0.008 microg/ml incubated 24 hrs by cation adjusted Mueller-Hinton broth based method; type: functional; conditions: dose 0.008 µg/ml
[31] = Nephrotoxicity against Sprague-Dawley rat assessed as increase in BUN level at 4 mg/kg, iv administered for 7 days by fully automated biochemistry analyzer XR200PLUS; type: toxicity, organism-based; conditions: in vivo, 168 h, time 7 day
Pseudomonas aeruginosa [32] = test: Antibacterial activity against carbapenem-resistant Pseudomonas aeruginosa clinical isolate ets49 assessed as inhibition of bacterial growth incubated for 24 hrs by CLSI protocol based broth microdilution method; type: functional
Escherichia coli [33] = test: Antibacterial activity against carbapenem-resistant Escherichia coli ATCC BAA-2340 assessed as inhibition of bacterial growth incubated for 16 to 20 hrs by CLSI protocol based broth microdilution method; type: functional; conditions: time 16-20 hrs
Escherichia coli [34] = test: Antibacterial activity against Escherichia coli ATCC BAA-2523 infected in ICR mouse model assessed as survival rate at 4 mg/kg, iv administered at 1 and 6 hrs post-infection and measured after 7 days relative to control; type: functional; conditions: ATCC BAA-2523, 168 h, time 7 day

Q: What does the source list for `CC(C)CCCCC(=O)N[C@@H](CCN)C(=O)N[C@H](C(=O)N[C@@H](CN)C(=O)N[C@H]1CCNC(=O)[C@H]([C@@H](C)O)NC(=O)[C@H](CCN)NC(=O)[C@H](CCN)NC(=O)[C@H]([C@@H](C)O)NC(=O)[C@@H](Cc2ccccc2)NC(=O)[C@H](CCN)NC1=O)[C@@H](C)O` ({Heptanoyl(6-Me)}-[Dab]T[Dap][Dab][Dab][dF]T[Dab][Dab]T; lactam 4-C)?
A: MIC (Klebsiella pneumoniae [1]): 0.5 µg/mL (≈ 0.43 µM); survival at 3 mg/kg (Acinetobacter baumannii): 100%; MIC (Pseudomonas aeruginosa [2]): ≤ 0.06 µg/mL; MIC (Pseudomonas aeruginosa [3]): 0.25 µg/mL; MIC (Escherichia coli [4]): < 0.06 µg/mL; survival at 10 mg/kg (Pseudomonas aeruginosa [5]): 100%; MIC (Pseudomonas aeruginosa [6]): 1 µg/mL (≈ 0.86 µM); MIC (Pseudomonas aeruginosa [7]): 2 µg/mL (≈ 1.72 µM); fraction unbound at 6 h, 0.2 µM [8]: 0.232; MIC (Klebsiella pneumoniae [9]): ≤ 0.03 µg/mL; MIC (Pseudomonas aeruginosa [10]): 1 µg/mL (≈ 0.86 µM); AUC(0-inf) [11]: 8280 ng·h/mL; ED50 (Klebsiella pneumoniae [12]): 0.38 mg/kg; ED50 (Pseudomonas aeruginosa [13]): 6.38 mg/kg; MIC (Pseudomonas aeruginosa [14]): 0.125 µg/mL (≈ 0.107 µM); Activity (Pseudomonas aeruginosa [15]): Below limit of detection; half-life [16]: 2.22 h; Activity (Pseudomonas aeruginosa [17]): inactive; MIC (Klebsiella pneumoniae [18]): 0.5 µg/mL (≈ 0.43 µM); MIC (Klebsiella pneumoniae [19]): 0.25 µg/mL (≈ 0.215 µM); pKd (Lipopolysaccharide (LPS) [20]): 7.52; ED50 (Escherichia coli [21]): 1.86 mg/kg; MIC (Pseudomonas aeruginosa [22]): 1 µg/mL (≈ 0.86 µM); pKd (Lipopolysaccharide (LPS) [23]): 4.94; MIC (Pseudomonas aeruginosa [24]): 0.5 µg/mL (≈ 0.43 µM); MRT [25]: 1.17 h; MIC (Pseudomonas aeruginosa [26]): 16 µg/mL; MIC (Pseudomonas aeruginosa [27]): 0.5 µg/mL (≈ 0.43 µM); clearance [28]: 4.16 mL/min/kg; MIC (Pseudomonas aeruginosa [29]): 0.5 µg/mL (≈ 0.43 µM); MIC (Pseudomonas aeruginosa [30]): 32 µg/mL; Activity [31]: Non-toxic; MIC (Pseudomonas aeruginosa [32]): 0.06 µg/mL (≈ 0.0516 µM); MIC (Escherichia coli [33]): ≤ 0.03 µg/mL; survival at 4 mg/kg (Escherichia coli [34]): 100%
